Row | SMILES | melting point
1 | CC(=O)Cc1ccc(OCc2ccccc2)cc1 | 50 to 54 °C
2 | O=S(=O)(Cl)c1ccc(Oc2ccc(Br)cc2)cc1 | 80.9 °C
3 | CCOc1c(Br)ccc(C(=O)OC)c1N(C)S(C)(=O)=O | 82 to 88 °C
4 | Cc1ccc(C(=O)OC(C)c2nc3c(c(=O)n(C)c(=O)n3C)n2C)c(C)n1 (configuration not stated) | 160 °C
5 | CCOC(=O)c1[nH]c2cc3[nH]c(C)c(C(=O)OCC)c3c(C)c2c1C | 216 °C
6 | CCCCCCCCCCCCCCOc1ccc(C(=O)Cl)cc1OCCCCCCCCCCCCCC | 68 to 70 °C
7 | CN1CCc2c(c3ccccc3n2CCC#N)C1 | 108 to 110 °C
8 | COC(=O)Cc1c(OC)ccc2c1Oc1c(ccc(OC)c1C=NO)C2(C)C | 234 to 236 °C
9 | CCN(CC)CCCNC(=O)/C(=C/C=C/c1cc2ccccc2o1)OC | 79 °C
10 | COC(=O)C[C@H](O)CC(=O)C=Cc1c(-c2ccc(F)cc2)c(-c2ccccc2)c(C(=O)Nc2ccccc2)n1C(C)C | 72 to 74 °C
11 | O=C(O)COC1CCN(C(=O)CN2CCN(c3ccncc3)CC2)CC1 | 198 to 200 °C
12 | CCCCCCCCN(C)C(=O)C(C)(C)n1cc(C)c(-c2ccccc2)n1 | 75 to 78 °C
13 | COc1cc(C(=O)N2Cc3ccc(C(=O)C(Cl)(Cl)Cl)n3Cc3ccccc32)ccc1-c1ccccc1C | 221 to 222 °C
14 | Cc1cc(C)c2cccc(OCc3c(Cl)ccc(S(=O)(=O)N4CCC[C@H]4C(=O)N4CCCNCC4)c3Cl)c2n1 | 65 °C
15 | COc1cc(C)c(C(=O)c2c(Cl)cccc2Cl)cc1OCC1CC1 | 152 °C
16 | C=C(C)c1cc(-c2ccc(OCCNC(N)=O)cc2)n(-c2ccc(OC)nc2)n1 | 94 to 98 °C
17 | CN(C(=O)CCS)c1nnc(-c2cccnc2)s1 | 149 to 151 °C
18 | Cc1oc(-c2ccccc2)nc1COc1ccc(/C=C/C=C/C#N)cc1 | 120 to 121 °C
19 | Cc1cc(N=Nc2ccccn2)cc(C)c1-c1ccc(-c2c(C)cc(N=Nc3ccccn3)cc2C)o1 | 206 to 207 °C
20 | ClCCOc1cccc(OCCCl)c1 | 104 to 105 °C
21 | O=C1Nc2cccnc2N(C(=O)NCCN2CCC(CCCN3CCCCC3)CC2)c2cc(Cl)ccc21 | 176 to 177 °C
22 | NC(=Nc1ccc(N2CCN(C(=O)NCCCCC3CCSS3)CC2)cc1)c1cccs1 (configuration not stated) | 201 to 202 °C
23 | CC(C)(C)c1cc(OCc2ccc(C#N)cc2)cc(C(C)(C)C)c1O | 166 to 169 °C
24 | CCOC(=O)C(=CNc1nccs1)C(=O)c1ccc(Cl)nc1Cl | 119 to 122 °C
25 | CCCCCCCNC(=O)Nc1ccc(C(C)C)cc1C(=O)NCC1CCN(C(c2ccccc2)c2ccccc2)CC1 | 179 to 180 °C
26 | CCOC(=O)C(=Cc1c(Cl)n(Cc2ccc(Cl)cc2)c2ccccc12)C(=O)OCC | 98 to 99 °C
27 | COc1ccc(N(C)c2nc(C)nc3oc(C)cc23)cc1 | 108 to 109 °C
28 | COc1cccc2c(O)c(CO)cnc12 | > 350 °C

Row | SMILES | melting point
29 | CSc1c(C(=O)NN2CCCCC2)nn(-c2ccc(Cl)cc2Cl)c1-c1ccc(Cl)cc1 | 172 to 174 °C
30 | O=C1CCC(N2C(=O)c3cccc(OCc4ccc(CN5CCSCC5)cc4)c3C2=O)C(=O)N1 (configuration not stated) | 221 to 223 °C
31 | CCCC1=C(C(=O)OCC)C(c2ccccc2OC)c2c[nH]nc2N1 (configuration not stated) | 169 °C
32 | CN(C)C(=O)n1nc(C(C)(C)C)cc1S(C)(=O)=O | 126 to 128 °C
33 | C/N=C1\N(C)C(=O)C(=Cc2c[nH]c3ccccc23)N1C | 241 to 242 °C
34 | Cc1cccc(CCC(O)(P(=O)(O)O)P(=O)(O)O)c1N | 133 °C
35 | COC1=CC2=C(CN1OC)C1=C(c3cc4c(cc3C1=O)OCO4)C(CCCC(C)O)C2=O (configuration not stated) | 288 to 290 °C
36 | Cc1ccccc1N1CCN(CCn2c(=O)[nH]c3sccc3c2=O)CC1 | 191 to 193 °C
37 | CCCCSc1cc(C(=O)O)cc(N=Nc2cc(C(=O)O)cc(SCCCC)c2C(=O)c2ccccc2)c1C(=O)c1ccccc1 | 102 to 103 °C
38 | CCc1ccnc2cc(OC)c(OCc3ccccc3)cc12 | 132 to 134 °C
39 | CN1C(=O)C(NC(=O)OCc2ccccc2)N=C(c2ccccc2)c2ccccc21 (configuration not stated) | 78 to 80 °C
40 | COC(=O)[C@@H]1C[C@H](OC(=O)c2ccccc2)C(=O)[C@H]2[C@@]1(C)CC[C@H]1C(=O)O[C@H](c3ccoc3)C[C@]21C | 165 to 170 °C
41 | Nc1ncnc2c1ncn2OCCSCP(=O)(O)O | 211 to 213 °C
42 | CCOC(=O)CC(c1ccccc1)c1ccc(NC(=O)NCCCl)cc1 (configuration not stated) | 109 to 111 °C
43 | O=C1CCC2(Cc3ccc(Br)cc3)C(=O)N(c3cc(Cl)cc(Cl)c3)C(=O)N12 (configuration not stated) | 230 °C
44 | CCCN1NC(c2ccc(Cl)cc2)C2=C1C(=Cc1ccc(Cl)cc1)CSC2 (configuration not stated) | 192 to 194 °C
45 | N=c1n(Cc2ccc(Cl)cc2)c2ccc(Cl)cc2n1Cc1ccc(Cl)cc1 | 175 to 177 °C
46 | Cn1c2c(c3ccccc31)C(=O)C(=Cc1c[nH]cn1)CC2 | 225 to 232 °C
47 | Cc1c(/C=C/C(=O)O)cnn1C | 217 to 219 °C
48 | COc1nc(O)cc(CCl)n1 | 154 to 155 °C
49 | CCCC(=O)NCC1(C)Cc2c(C)c(N3CCN(c4ccc(OC)cc4)CC3)c(C)c(C)c2O1 (configuration not stated) | 140 to 142 °C
50 | N#Cc1c(Cl)ccnc1Cl | 107 to 109 °C
51 | CC1(C)Oc2cc3nonc3cc2C(N2CCCC2=O)C1O (configuration not stated) | 242 to 244 °C
52 | COc1cc2cc3ncc(C#N)c(Cl)c3cc2cc1OC | > 265 °C
53 | CC(=O)C1CCC2C3CCC4CC(O)(C#Cc5ccccn5)CCC4(C)C3CCC12C (configuration not stated) | 192 to 195 °C
54 | COC(=O)c1c(N)ncn1C(c1ccccc1)c1ccccc1 | 199 to 201 °C
55 | COC(=O)c1cccc2c1cc1n2CCCC1 | 102 to 103 °C

Results, then the compound that gave them:

Row | melting point | SMILES
56 | 172 to 174 °C | NC(=O)c1cc(CN2C(=O)C3(COc4cc5c(cc43)OCO5)c3ccccc32)oc1C(F)(F)F (configuration not stated)
57 | 199 to 200 °C | Cc1nc(-c2ccccc2)nc(-c2cccc([N+](=O)[O-])c2)c1C(=O)NCCCl
58 | 170 to 172 °C | CC1=NCCN1Cc1ccc(CCNC(=O)c2ccc(-c3ccc(Cl)cc3)cc2)cc1
59 | 201 to 203 °C | CC(=O)Nc1ccc(C2COc3cc(O)c(O)cc3C2)cc1 (configuration not stated)
60 | 184 to 186 °C | Cc1ccc(C2(CC(=O)O)CNC(=O)C2)cc1 (configuration not stated)
61 | 212 to 218 °C | NC(=O)N1C(=O)C(=C(OC(=O)c2ccc(C(=O)OCc3ccccc3)cc2)c2cccs2)c2cc(F)c(Cl)cc21
62 | 126 to 129 °C | O=C(O)C=C=Cc1ccc(C2CCCCC2)cc1
63 | 158 to 160 °C | O=C(O)COc1cccc2c1CCC(Cc1coc(C(c3ccccc3)c3ccccc3)n1)C2 (configuration not stated)
64 | 169 to 171 °C | Nc1cc(C(F)(F)F)c(Br)cc1S(=O)(=O)c1ccccc1
65 | 207 to 210 °C | CC(C)COc1ccc(C(=O)N/C(=C\c2ccc(C(F)(F)F)cc2)C(=O)NCCO)cc1
66 | > 280 °C | O=C(O)c1ccc(C=Cc2ccc(C(=O)O)cc2)cc1
67 | 233 to 235 °C | FC(F)c1nc2ccccc2n1-c1nc(Nc2ccncn2)nc(N2CCOCC2)n1
68 | 248 °C | COC(=O)c1sc2ccc(NC(C)=O)cc2c1N
69 | 101 to 103 °C | N#CC=C(N)c1ccccc1C(F)(F)F
70 | 297 to 300 °C | CS(=O)(=O)c1[nH]nc(-c2ccc(F)cc2)c1-c1ccncc1
71 | 169 to 170 °C | Cc1c(NC(=O)CC(C)(C)C)cc2c(c1C)OC(C)(C)C2c1ccc(C=O)cc1 (configuration not stated)
72 | 185 to 186 °C | COC1CN(C(=O)Nc2ccc(C(F)(F)F)cc2)N=C1c1ccc(Cl)cc1 (configuration not stated)
73 | > 260 °C | COc1cc(OC)c(-c2cc3ccccc3s2)cc1/C=C/C(=O)c1ccc(Nc2c(N)c(=O)c2=O)cc1
74 | 97 to 97.5 °C | O=C1CC(=O)N(Cc2ccccc2)[C@H](Cc2ccccc2)C1
75 | 80 to 82 °C | CC(=O)c1ccc2c(c1)CCC(=O)CO2
76 | 81 to 82 °C | COC(=O)C(C)c1ccc2c(c1)CC(=O)c1ccccc1S2 (configuration not stated)

Row | melting point | SMILES
77 | 136 °C | CC(C(=O)c1ccc(Cl)cc1)N1CCC(O)(Cc2ccccc2)CC1 (configuration not stated)
78 | 105 to 106 °C | COCCc1nnc(NC(=O)C2c3ccccc3Oc3ccccc32)o1
79 | 54 to 56 °C | O=C1NC(=O)C(Cc2ccc(OCC3CCN(C(=O)OCc4ccccc4)CC3)cc2)S1 (configuration not stated)
80 | 128 to 130 °C | CS(=O)(=O)c1ccc(-n2nc(C(F)(F)F)cc2-c2ccc(-c3cscn3)c(Cl)c2)cc1
81 | 327 to 329 °C | COc1ccc(C2C3=C(COC3=O)Nc3ccc4ncsc4c32)cc1O (configuration not stated)
82 | 335 to 337 °C | O=c1[nH]c2cc(Cl)ccc2c(O)c1-c1ccc(F)cc1
83 | 162 to 164 °C | CN(C)Cc1cc2ccc(C(=O)NNC(=O)CSCCOc3ccccc3)cc2o1
84 | 219 to 220 °C | O=C(NC1C(O)=COC2=C1SC([N+](=O)[O-])C2)c1ccc(C(F)(F)F)cc1 (configuration not stated)
85 | 141 to 143 °C | FC(F)(F)Oc1ccc(Nc2cc(N3CCCC3)cc(-c3ccccc3)n2)cc1
86 | 211 to 216 °C | Cc1cnc2ncc(-c3cccc(-c4ccccc4C#N)c3)n2n1
87 | 246 to 250 °C | CC(=O)Nc1c(C(=O)c2cccc([N+](=O)[O-])c2)[nH]c2cc(Cl)ccc12
88 | 113 to 114 °C | CC(=O)OCc1c(O)cccc1[N+](=O)[O-]
89 | 189 to 192 °C | CC(C)C(=O)c1cn(Cc2c(F)cccc2F)c2sc(-c3ccccc3)c(CBr)c2c1=O
90 | 49.5 to 50 °C | CC(NCc1ccccc1)N(Cc1ccccc1)CC(C)[N+](=O)[O-] (configuration not stated)
91 | 197 to 200 °C | O=C1COc2ccc(NC(=O)C(=O)N3CCC(Cc4ccc(F)cc4)CC3)cc2N1
92 | 65 to 67 °C | O=C(NCc1ccccc1)c1ccnc(NC(=O)c2cccc3ccccc23)c1
93 | 197 to 198 °C | CC(C)C(=O)NC1C(OCc2ccccc2)=CC=CC1(Br)[N+](=O)[O-] (configuration not stated)
94 | 76 to 78 °C | C=CCC(NC(=O)c1ccc(OC)cc1)C(=O)OCC (configuration not stated)
95 | 190 °C | NCC=Cc1ccc(NC(=O)c2ccccc2-c2ccc(C(F)(F)F)cc2)cc1
96 | 182 to 184 °C | Cn1c(-c2ccc(O)c(F)c2)cc2ncccc2c1=O
97 | 103 to 104 °C | CCCN(CCC)C1Cc2c(-c3ncco3)ccc3c2C(C1)CN3C(=O)c1ccccc1 (single isomer, unassigned; (-))

Reference: a melting point compilation (Tetko et al.; mined from patent text by program, amines drawn as free bases though some values may be those of a salt)
